We go through five molecules from patent publication US6093723A, “4-substituted beta-carbolines and analogs thereof” (Boehringer Ingelheim Pharmaceuticals, Inc., priority 1997, dated 2000).

Assay [1] concerns IL-2 production in T lymphocytes (CD3+/CD4+ cells). Put plainly: IL-2 production assay, Protocol B (antiCD3/antiCD28 as stimuli). It counts as cell-based. The settings on record: T-lymphocyte; human T lymphocytes, anti-CD3/anti-CD28 and goat anti-mouse coated beads, 16 hour. The method, then: Protocol B (antiCD3/antiCD28 as stimuli)
Human peripheral blood is obtained from healthy donors by venipuncture and the mononuclear cell fraction is prepared by centrifugation on Ficoll Hypaque (Phamacia) density gradients. Contaminating red blood cells are lysed and the CD3+/CD4+ cells are purified using immunoaffinity columns (R&D Systems or CellPro). The T lymphocytes are plated at 1-1.5×10^5 cells/well in a 96 well microtiter plate, and incubated with serial dilutions of compounds for 20 minutes at 37° C. The T cells are activated by the addition of 0.6 ng/ml anti-CD3 (Immunotech), 500 ng/ml anti-CD28 (Biodesign) and 2×10^5 goat anti-mouse coated beads (Dynal). The final volume of the assay is 200 μl. Following a 16 hour incubation at 37° C., the cells are pelleted, and the supernatants are removed and collected and stored at -70° C. until assayed for interleukin-2 using a commercial ELISA kit (R&D Systems).

Assay [2] relates to Ca^+2 influx in Jurkat cells (clone E6-1). Description: Calcium influx assay (thapsigargin-stimulated, Fluo-3). The assay is classed as cell-based. The note with it: Homo sapiens; Jurkat cells clone E6-1, thapsigargin 100 nM, 10 min preincubation. The protocol:
Jurkat cells (clone E6-1) are pelleted by centrifugation, washed twice, and resuspended in RPMI 1640 containing, […], 1 % fetal calf serum, 3 μM Fluo-3-AM, 13.5 μl/ml Pluronic F 127 (Molecular Probes) and incubated for 1 hour at 37° C. The loaded cells are washed twice in Hanks Balanced Salt Solution containing 10 mM HEPES. The cells are resuspended in HBSS containing 10 mM HEPES, and dispensed into 96-well Dynatech black microtiter plates at 2×10^5 cells/well. The cells are preincubated with compounds for 10 minutes at room temperature. Baseline fluorescence of unstimulated cells is measured using an SLT fluorescent microtiter plate reader with an excitation wavelength of 495 nm and emission wavelength of 538 nm. Thapsigargin is then added to a final concentration of 100 nM. Following a 5 minute incubation, fluorescence of thapsigargin treated cells is measured. Delta fluorescence values are determined by subtracting baseline fluorescence values from thapsigargin induced fluorescence values.

Assay [3] has as its system IL-2 production in CD3+/CD4+ cells. Description: IL-2 production assay, Protocol A (ionomycin and PMA as stimuli). It counts as cell-based. The note with it: human CD3+/CD4+ cells, ionomycin 1 μg/ml and PMA 10 ng/ml, 16 hr. The protocol: Protocol A (ionomycin and […] as stimuli)
Human peripheral blood is obtained from healthy donors by venipuncture and the mononuclear cell fraction is prepared by centrifugation on Ficoll Hypaque (Phamacia) density gradients. Contaminating red blood cells are lysed and the CD3+/CD4+ cells are purified using immunoaffinity columns (R&D Systems or CellPro). The cells are resuspended and dispensed in 96 well microtiter plates. Test compounds are added to the cells approximately 15 minutes prior to stimulation with ionomycin (1 μg/ml) and PMA (10 ng/ml). The final volume of the assay is 100 μL. Following a 16 hr incubation at 37° C., the cells are pelleted by centrifugation, and the supernatants are collected and stored at -70° C. until assayed for IL-2 using a commercial ELISA kit (Genzyme).

The next assay deals with IL-2 promoter. Put plainly: IL-2 promoter assay (luciferase reporter in Jurkat cells). The note with it: Homo sapiens; Jurkat luciferase reporter cells, ionomycin 1 μg/ml and PMA 10 ng/ml, 5 hr; read-out: IL-2 PROMOTER IC50. The assay is classed as cell-based. The source says: All the known regulatory features of IL-2 gene are contained within a ~300 bp sequence immediately upstream of the open reading frame. […] The resulting construct, pIL2P-luc, and a vector containing a neomycin resistance gene, pcDNA/Neo (Invitrogen), are linearized and stably transfected into Jurkat cells (a human T cell line) by electroporation.
For screening compounds, the cells are pelleted by centrifugation, washed once with PBS, resuspended in RPMI (phenol red-free) containing 5% FBS, and dispensed into 96-well, white microtiter plates (Packard) at 50,000 cells/well. The cells are pre-incubated with compounds (1 μg/ml) for 15 min prior to addition of ionomycin (1 μg/ml) and PMA (10 ng/ml) in a final volume of 100 μl. Following a 5 hr incubation at 37° C. in a humidified incubator, 100 μl of Luc-Lite lysis buffer/luciferase assay buffer (Promega) is added and luminescence measured using a Packard TopCount scintillation counter/luminometer.
A general note: A reporter such as luciferase makes a cellular process visible.

The test system of assay [4] is allogeneic cell transplant response (T-cell-mediated immune response, popliteal lymph node). Put plainly: Allogeneic cell transplant response in mice (popliteal lymph node weight). It counts as in vivo, mice (DBA donors, C57B1/6 recipients). The settings on record: dosed one hour prior to cell injection and daily thereafter, ~four days. The source says:
Allogeneic Cell Transplant Response in Mice
The ability of cells to recognize other cells from self or from another genetically different individual (non-self) is an important property in maintaining the integrity of tissue and organ structure. The allogeneic cell transplant response is therefore an important model for studies of transplant rejection. This T-cell-mediated immune response can be induced in adult mice by the injection of lymphocytes from an histoincompatible mouse strain. This response is characterized by T cell proliferation which is limited to the popliteal lymph node that receives drainage from the footpad area. No in vitro system exists that can exactly duplicate completely this in vivo response. The assay is commonly used to evaluate new and novel potential immunosuppressive molecules.
Experiments are conducted using male or female mice (20-26 grams). Any histoincompatible mouse strains suffice for donor and recipient populations. Typically DBA mice are used as donors and C57B1/6 mice are used as recipients. A minimum of 1 week stabilization and conditioning period is usually required before use of the mice. Each study utilizes approximately 36 recipient mice divided into groups of 6.
Donor mice are sacrificed by CO2 asphyxiation and spleens are removed and a cell suspension is prepared. The cell suspension (1.0×10^7/metatarsal in 0.05 ml) is injected I.D. into the dorsal metatarsal skin of recipient mice. Four days later, the animals are sacrificed by CO2 asphyxiation and the popliteal nodes are removed and weighed. Groups of mice receiving putative immunosuppressive agents are dosed subcutaneously,intraperitoneally or orally one hour prior to cell injection and daily thereafter. The tests last approximately four days. The assay involves no footpad swelling and only a moderate increase in the size of the popliteal lymph node. Student's t test is used to determine significant differences between popliteal lymph nodes of groups of untreated mice and those mice treated with putative immunosuppressive agents.

The IC50 is the concentration that gives 50% inhibition. `FC(F)(F)c1ccc(-c2cncc3[nH]c4ccccc4c23)cc1` [Compound 4, 4-(p-Trifluoromethylphenyl)-β-carboline]: the IC50 in assay [1] was determined as 3.4 µM; in assay [2] it was 500 nM; in assay [3], 0.3 µM; in the assay with IL-2 promoter, 230 nM. In addition, in assay [4] (0.1 mg/kg), the “ALLOGENEIC CELL TRANSPLANT %” value was 38%.

Consider `Cc1ccc(-c2cncc3[nH]c4ccccc4c23)cc1` [Compound 1, 4-(p-Methylphenyl)-β-carboline], for which the IC50 in assay [1] is 6.2 µM; in assay [2], 300 nM; in assay [3], 2 µM; in the assay on IL-2 promoter, 1500 nM. Moreover, the “ALLOGENEIC CELL TRANSPLANT %” value in assay [4] (1 mg/kg) came out at 38%.

`COc1ccc(-c2cncc3[nH]c4ccccc4c23)cc1` [Compound 5, 4-(p-Methoxyphenyl)-β-carboline]: the IC50 in assay [1] worked out at 4.2 µM; in assay [2], 300 nM; in assay [3], 1 µM; with IL-2 promoter, 1090 nM. Further, the “ALLOGENEIC CELL TRANSPLANT %” value in assay [4] (1 mg/kg) is 60%.

`COc1cccc(-c2cncc3[nH]c4ccccc4c23)c1` [Compound 7]: the IC50 was found to be 9.8 µM in assay [1], 700 nM in assay [2], 5 µM in assay [3] and 3000 nM in the assay with IL-2 promoter. For the same molecule, the “ALLOGENEIC CELL TRANSPLANT %” value in assay [4] (1 mg/kg) is 49%.

In the case of `CCOc1ccc(-c2cncc3[nH]c4ccccc4c23)cc1` [Compound 12], the values for the IC50 in assay [1], in assay [2] and in assay [3] were 4.5 µM, 1200 nM and 0.3 µM, respectively. Moreover, the “ALLOGENEIC CELL TRANSPLANT %” value in assay [4] (1 mg/kg) is recorded as 49%.
